Values of other authors in PMC3160472 (Nature protocols, 2011).
Where two headings read alike, the source gives them in different places.

Columns and labels:
[1] = target: NT (N-terminal domain of IP3 receptor, residues 1-604 of IP3R1); settings: read-out: KD, NT, FP, Ca2+-free CLM, 4 °C, mean ± S.E.M., n = 3
[2] = target: IBC (IP3-binding core of IP3 receptor, residues 224-604 of IP3R1); settings: read-out: KD, IBC, 3H-IP3; Ca2+-free CLM, 4 °C, equilibrium competition binding with 3H-IP3, mean ± S.E.M., n = 3
[3] = target: IBC (IP3-binding core of IP3 receptor, residues 224-604 of IP3R1); settings: read-out: KD, IBC, FP, Ca2+-free CLM, 4 °C, mean ± S.E.M., n = 3
[4] = target: NT (N-terminal domain of IP3 receptor, residues 1-604 of IP3R1); settings: for Kd: read-out: KD, NT, 3H-IP3, Ca2+-free CLM, 4 °C, equilibrium competition binding with 3H-IP3, mean ± S.E.M., n = 3
[5] = target: NT (N-terminal domain of IP3 receptor, residues 1-604 of IP3R1); settings: read-out: KD, saturation radioligand binding; 'purified' NT, 3H-IP3, in TEM (pH 8.3)

| Molecule | Kd [1] | Kd [2] | Kd [3] | Kd [4] | Kd [5] | KD for the NT in TEM relative to Ca2+-free CLM ([4]; TEM (pH 8.3) versus Ca2+-free CLM (pH 7.0), printed as higher in TEM) |
| --- | --- | --- | --- | --- | --- | --- |
| Nc1ncnc2c1ncn2[C@@H]1O[C@H](CO)[C@@H](O[C@H]2O[C@H](CO)[C@@H](OP(=O)(O)O)[C@H](OP(=O)(O)O)[C@H]2O)[C@H]1OP(=O)(O)O [Adenophostin A] | 8.6 ± 0.2 nM | 0.7 ± 0.1 nM | 0.9 ± 0.1 nM | 6.2 ± 1.6 nM |  |  |
| O=P([O-])([O-])O[C@@H]1[C@H](O)[C@H](O)[C@@H](OP(=O)([O-])[O-])[C@H](OP(=O)([O-])[O-])[C@H]1O.[K+].[K+].[K+].[K+].[K+].[K+] [IP3, D-myo-inositol-1,4,5-trisphosphate, hexapotassium salt] | 95 ± 7 nM | 8.7 ± 1.8 nM | 9.2 ± 0.8 nM | 65 ± 8 nM | 2.2 ± 0.5 nM | ~ 40 fold |
| D-2-O-(2-(3-(5-fluoresceinyl)thioureido)ethyl)-myo-inositol 1,4,5-trisphosphate [FITC-IP3] | 12.5 ± 0.6 nM | 2 ± 0.2 nM | 3 ± 0.1 nM | 11.8 ± 0.2 nM |  |  |
